Columns and labels:
[1] = molecular target: T1, Fatty acid-binding protein 5-ANS (Mus musculus, UniProt Q05816); assay: Fluorescence Competition Assay
T1 sequence (Q05816 whole entry): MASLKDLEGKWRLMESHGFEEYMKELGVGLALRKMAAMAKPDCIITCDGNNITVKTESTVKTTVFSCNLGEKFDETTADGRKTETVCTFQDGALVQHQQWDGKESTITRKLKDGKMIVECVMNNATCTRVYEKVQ
Method: (§1) The method entails two steps [Lin et al., Biochemistry, 38:185-190]. In the first step, the Kd for association of FABP5 with the fluorescent lipid probe anilinonaphtalene-8-sulfonic acid (ANS) was measured by fluorescence titrations. Kd values for nonfluorescent ligands were then measured by monitoring their ability to compete with the probe for binding. FABP5 was precomplexed with ANS and titrated with ligands. Ligand binding was followed by monitoring the decrease in fluorescence upon displacement of the probe from the protein.

[2] = molecular target: T2, Fatty acid-binding protein 5 (Mus musculus, UniProt Q05816); assay: Fluorescence Competition Assay
T2 sequence (Q05816 whole entry): T1 sequence (Q05816 whole entry)
Method: as §1

| Structure (SMILES) | Kd [1] [nM] | Kd [2] [nM] |
| --- | --- | --- |
| CCCCC/C=C\C/C=C\C/C=C\C/C=C\CCCC(=O)NCCO [Arachidonoyl ethanolamide] | 100 |  |
| CCCCC/C=C\C/C=C\C/C=C\C/C=C\CCCC(=O)O [[1-14C]Arachidonic acid] | 42.1 |  |
| O=S(=O)(O)c1cccc2cccc(Nc3ccccc3)c12 [ANS] |  | 70 |
